Reference: patent US9670184B2, “Amorphous allisartan isoproxil, preparation method therefor, and pharmaceutical composition containing amorphous allisartan isoproxil” (SHENZHEN SALUBRIS PHARMACEUTICALS CO. LTD, priority 2013, dated 2017)

Experiments:
Format in all cases: physicochemical
[1] = Repose angle of powders by fixed-funnel method; settings: powder sieved through 100-mesh screen
Excerpt: (§1) The powders of experiment 1 and 3 were pulverized and then sieved through a 100-mesh screen to obtain powders with particle size similar to the crystal powder. Then the repose angles of the powders were detected respectively by using a fixed-funnel method; and the bulk densities of the powders were detected respectively by using measurement in a graduated cylinder (Method I of Bulk Density disclosed in Ph. Eur), and the results were shown in the table below: […]

[2] = Bulk density of powders, measurement in a graduated cylinder (Method I of Bulk Density, Ph. Eur); settings: powder sieved through 100-mesh screen
Excerpt: as §1

[3] = Electrostatic phenomenon of the dried powder (observation); settings: powder after drying

Structure (SMILES)	Repose Angle [1]	Bulk Density [2]	Electrostatic phenomenon [3]
CCCCc1nc(Cl)c(C(=O)OCOC(=O)OC(C)C)n1Cc1ccc(-c2ccccc2-c2nnn[nH]2)cc1 [Amorphous allisartan isoproxil obtained from experiment 1] [2-butyl-4-chloro-1-[2′-(1H-tetrazol-5-yl)-1,1′-biphenyl-methyl]-imidazole-5-carboxylic acid, 1-[(isopropoxy)-carbonyloxy]methyl ester]	33-36 °	0.77 g/mL	no obvious electrostatic phenomenon
CCCCc1nc(Cl)c(C(=O)OCOC(=O)OC(C)C)n1Cc1ccc(-c2ccccc2-c2nnn[nH]2)cc1 [Amorphous allisartan isoproxil obtained from experiment 3] [2-butyl-4-chloro-1-[2′-(1H-tetrazol-5-yl)-1,1′-biphenyl-methyl]-imidazole-5-carboxylic acid, 1-[(isopropoxy)-carbonyloxy]methyl ester]	33-36 °	0.79 g/mL	no obvious electrostatic phenomenon
CCCCc1nc(Cl)c(C(=O)OCOC(=O)OC(C)C)n1Cc1ccc(-c2ccccc2-c2nnn[nH]2)cc1 [Experiment 2, 2-butyl-4-chloro-1-[2′-(1H-tetrazol-5-yl)-1,1′-biphenyl-methyl]-imidazole-5-carboxylic acid, 1-[(isopropoxy)-carbonyloxy]methyl ester]	–	–	no obvious electrostatic phenomenon
CCCCc1nc(Cl)c(C(=O)OCOC(=O)OC(C)C)n1Cc1ccc(-c2ccccc2-c2nnn[nH]2)cc1 [Patent Crystal, 2-butyl-4-chloro-1-[2′-(1H-tetrazol-5-yl)-1,1′-biphenyl-methyl]-imidazole-5-carboxylic acid, 1-[(isopropoxy)-carbonyloxy]methyl ester, reference compound]	48-53 °	0.51 g/mL	obvious electrostatic phenomenon
